The experiment addresses MBL (Homo sapiens, UniProt P11226). The experiment can be described thus: affinity of monomeric saccharide unit to MBL. It counts as binding.

Among the data in patent US8691517B2, “Flexible carbohydrate-bearing polymer” (Medtronic Minimed, Inc., priority 2005, dated 2014) are IC50 values, retold here.

Chain of MBL (P11226 21-248): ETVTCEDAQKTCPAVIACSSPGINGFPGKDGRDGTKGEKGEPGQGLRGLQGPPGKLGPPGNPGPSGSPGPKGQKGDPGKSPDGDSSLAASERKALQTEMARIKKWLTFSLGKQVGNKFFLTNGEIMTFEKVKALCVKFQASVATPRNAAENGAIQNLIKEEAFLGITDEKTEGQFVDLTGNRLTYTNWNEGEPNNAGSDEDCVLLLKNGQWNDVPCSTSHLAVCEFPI

The compound `CC(=O)N[C@H]1C(O)O[C@H](CO)[C@@H](O)[C@@H]1O` (some centres unmarked) [N-acetyl-glucosamine] came in with an IC50 of approximately 6 mM.
The figure for `O=C[C@H](O)[C@@H](O)[C@@H](O)[C@H](O)CO` [galactose] is approximately 36 mM.

Broadly, the IC50 is the concentration at which inhibition is half-maximal. Higher therefore signals lower potency.
